Measured values as given in patent US12522562B2, “Intestine-specific partial agonists of farnesoid X receptor and uses thereof” (EWHA DrugDesignHouse Co., Ltd., priority 2022, dated 2026).
Like-named read-outs stand apart in the source and are kept apart here.

Biological target: T1, FXR (Homo sapiens, UniProt Q96RI1)
T1 sequence (Q96RI1 1-486): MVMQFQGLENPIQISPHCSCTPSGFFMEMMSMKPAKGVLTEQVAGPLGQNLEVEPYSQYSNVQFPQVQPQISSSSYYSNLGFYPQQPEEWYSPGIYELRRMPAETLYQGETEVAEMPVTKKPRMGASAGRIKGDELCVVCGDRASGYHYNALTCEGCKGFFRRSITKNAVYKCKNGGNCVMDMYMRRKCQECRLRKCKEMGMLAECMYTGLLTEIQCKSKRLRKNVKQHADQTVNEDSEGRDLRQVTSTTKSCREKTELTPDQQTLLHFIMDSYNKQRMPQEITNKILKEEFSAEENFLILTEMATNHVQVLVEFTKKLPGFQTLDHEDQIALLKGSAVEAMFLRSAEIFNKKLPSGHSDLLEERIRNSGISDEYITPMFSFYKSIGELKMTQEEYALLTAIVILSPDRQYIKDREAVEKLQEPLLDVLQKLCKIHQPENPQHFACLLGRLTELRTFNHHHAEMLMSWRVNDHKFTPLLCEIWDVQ
Experiment: PathHunter NHR protein interaction assay, agonist mode (FXR)
Settings: for Emax: relative to GW4064, top conc. 3.3 μM

[1] = Table 4, 5 concentrations, 3-fold dilution from 3.3 μM (GW4064: 10 conc. from 10 μM), one experiment in duplicate, NA = inactive at 3.3 μM
[2] = read-out: % max. rel. efficacy, Table 4, one experiment in duplicate
[3] = read-out: % max. rel. efficacy, Table 2, one experiment in duplicate

Method: PathHunter® CHO-K1 FXR protein interaction cells were expanded from freezer stocks according to standard procedures. Cells were seeded in a total volume of 20 μL into white walled, 384-well microplates and incubated at 37° C. for the appropriate time prior to testing. Assay media contained charcoal-dextran filtered serum to reduce the level of hormones present. For agonist determination, cells were incubated with sample to induce response. […] For antagonist determination, cells were pre-incubated with antagonist followed by agonist challenge at the EC80 concentration. […] Microplates were read following signal generation with a PerkinElmer Envision™ instrument for chemiluminescent signal detection. Compound activity was analyzed using CBIS data analysis suite (ChemInnovation, CA). For agonist mode assays, percentage activity was calculated using the following formula: % Activity=100%×(mean RLU of test sample−mean RLU of vehicle control)/(mean MAX control ligand−mean RLU of vehicle control).
In this assay, two weakly complementing fragments of the β-galactosidase are expressed within stably transfected cells. The complementing fragments of the β-galactosidase are translationally fused to the C-terminus of a full-length FXR and to the steroid receptor coactivator peptide (SRCP), respectively. When bound by ligand, the FXR will migrate to the nucleus and recruit the SRCP domain, whereby complementation occurs, generating a unit of active β-galactosidase and production of chemiluminescent signal. Thus, measurement of chemiluminescent signal directly reflects FXR-coactivator interaction.

EC50 [1]	Emax [2]	Emax [3]	EC50	SMILES
900 nM	46%			CN(C)c1ccc(-c2ccc(CN(C(=O)C3CCCCC3)c3cccc(/C=C/C(=O)OC4CC4)c3)cc2C#N)cc1 [Example 23, (E)-3-(3-((2-cyano-4′-dimethylaminobiphenyl-4-ylmethyl)cyclohexanecarbonylamino)phenyl)acrylic Acid Cyclopropyl Ester]
1300 nM	23%			CCOC(=O)/C=C/c1cc(N(Cc2ccc(-c3ccc(N(C)C)cc3)c(C#N)c2)C(=O)C2CCCCC2)ccc1F [Example 15]
1600 nM	9%			CCOC(=O)/C=C/c1ccc(F)c(N(Cc2ccc(-c3ccc(N(C)C)cc3)c(C#N)c2)C(=O)C2CCCCC2)c1 [Example 21, (E)-3-(3-((2-cyano-4′-dimethylaminobiphenyl-4-ylmethyl)cyclohexanecarbonylamino)-4-fluorophenyl)acrylic acid ethyl ester]
800 nM	20%			CC(C)OC(=O)/C=C/c1cc(F)cc(N(Cc2ccc(-c3ccc(N(C)C)cc3)c(C#N)c2)C(=O)C2CCCCC2)c1 [Example 13, (E)-3-(3-((2-cyano-4′-dimethylaminobiphenyl-4-ylmethyl)cyclohexanecarbonylamino)-5-fluorophenyl)acrylic acid isopropyl ester]
1500 nM	23%			COC(=O)/C=C/c1cc(N(Cc2ccc(-c3ccc(N(C)C)cc3)c(C#N)c2)C(=O)C2CCCCC2)ccc1F [Example 14]
1300 nM	19%			COC(=O)/C=C/c1cccc(N(Cc2ccc(-c3ccc(N(C)C)cc3)c(C#N)c2)C(=O)C2CCCCC2)c1F [Example 17, (E)-3-(3-((2-cyano-4′-dimethylaminobiphenyl-4-ylmethyl)cyclohexanecarbonylamino)-2-fluorophenyl)acrylic acid methyl ester]
	3%			CC(C)OC(=O)/C=C/c1ccc(F)c(N(Cc2ccc(-c3ccc(N(C)C)cc3)c(C#N)c2)C(=O)C2CCCCC2)c1 [Example 22, (E)-3-(3-((2-cyano-4′-dimethylaminobiphenyl-4-ylmethyl)cyclohexanecarbonylamino)-4-fluorophenyl)acrylic acid isopropyl ester]

Further lines, the compound ahead of its results:

SMILES	EC50 [1]	Emax [2]	Emax [3]	EC50
COC(=O)/C=C/c1cccc(N(Cc2ccc(-c3ccc(N(C)C)cc3F)c(C#N)c2)C(=O)C2CCCCC2)c1 [Example 6, (E)-3-(3-((2-cyano-4′-dimethylamino-2′-fluorobiphenyl-4-ylmethyl)cyclohexanecarbonylamino)phenyl)acrylic Acid Methyl Ester]	900 nM	42%		
COC(=O)/C=C/c1cccc(N(Cc2ccc(-c3ccc(N(C)C)cc3C#N)c(C#N)c2)C(=O)C2CCCCC2)c1 [Example 8, (E)-3-(3-(cyclohexanecarbonyl-(2,2′-dicyano-4′-dimethylaminobiphenyl-4-ylmethyl)-amino)phenyl)acrylic acid methyl ester]	1600 nM	10%		
CCOC(=O)/C=C/c1cc(F)cc(N(Cc2ccc(-c3ccc(N(C)C)cc3)c(C#N)c2)C(=O)C2CCCCC2)c1 [Example 12, (E)-3-(3-((2-cyano-4′-dimethylaminobiphenyl-4-ylmethyl)cyclohexanecarbonylamino)-5-fluorophenyl)acrylic acid ethyl ester]	1000 nM	47%		
COC(=O)/C=C/c1cccc(N(Cc2ccc(-c3ccc(N(C)C)cc3)c(C3OCCO3)c2)C(=O)C2CCCCC2)c1 [Example 3, (E)-3-(3-(cyclohexanecarbonyl-(4′-dimethylamino-2-[1,3]dioxolan-2-ylbiphenyl-4-ylmethyl)amino)phenyl)acrylic acid methyl ester]			3%	
COCc1cc(CN(C(=O)C2CCCCC2)c2cccc(/C=C/C(=O)OC)c2)ccc1-c1ccc(N(C)C)cc1 [Example 2, (E)-3-(3-(cyclohexanecarbonyl-(4′-dimethylamino-2-methoxymethylbiphenyl-4-ylmethyl)amino)phenyl)acrylic acid methyl ester]			5%	> 10000 nM
